Measurements published in ChEMBL document CHEMBL1201862, “PubChem BioAssay data set” (2004).
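Dose response: 5 concentrations. Exposure: 48 h. Format: 96-well plates. Endpoint: linear interpolation; highest concentration if not reached. The concentration for 50% growth inhibition is given as GI50.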 Calls of active or inactive are those of the source. Rule as the data show it: active = GI50 up to about 1.1 µM and inactive = higher.

How the values were obtained:
Experiment in all cases: NCI anticancer screen, dose series, 48 h
HOP-62 = tested on: HOP-62
Malme-3M = tested on: Malme-3M
SN12C = tested on: SN12C
RXF 393 = tested on: RXF 393
OVCAR-8 = tested on: OVCAR-8
SW-620 = tested on: SW-620
OVCAR-5 = tested on: OVCAR-5
KM12 = tested on: KM12
HCT-116 = tested on: HCT-116
EKVX = tested on: EKVX
SF-268 = tested on: SF-268
TK-10 = tested on: TK-10
UACC-257 = tested on: UACC-257
A549 = tested on: A549
SNB-19 = tested on: SNB-19
IGROV-1 = tested on: IGROV-1
U-251 = tested on: U-251
NCI/ADR-RES = tested on: NCI/ADR-RES
SK-MEL-5 = tested on: SK-MEL-5
NCI-H460 = tested on: NCI-H460

Measured: GI50

N#Cc1nnn(-c2ccc(Br)cc2)c1O
inactive: HOP-62 > 100 µM | Malme-3M > 100 µM | SN12C > 100 µM | RXF 393 > 100 µM | OVCAR-8 > 100 µM | SW-620 > 100 µM | OVCAR-5 > 100 µM | KM12 > 100 µM | HCT-116 > 100 µM | EKVX > 100 µM | SF-268 > 100 µM | TK-10 > 100 µM | UACC-257 > 100 µM | A549 > 100 µM | SNB-19 > 100 µM | IGROV-1 > 100 µM | U-251 > 100 µM | NCI/ADR-RES > 100 µM

CC1(C)CC(=O)c2c(nc3c4c([nH]c(-c5ccc([N+](=O)[O-])cc5)c24)CC(C)(C)C3)C1
inactive: HOP-62 > 100 µM | SK-MEL-5 26.2 µM | Malme-3M > 100 µM | SN12C 53.3 µM | RXF 393 25.8 µM | OVCAR-8 38.3 µM | SW-620 47.4 µM | OVCAR-5 58.1 µM | KM12 37.4 µM | HCT-116 41.1 µM | EKVX 61.4 µM | SF-268 50.9 µM | TK-10 50.7 µM | UACC-257 67 µM | A549 27.6 µM | SNB-19 48.4 µM | U-251 26.7 µM | NCI/ADR-RES 21.5 µM | NCI-H460 38.5 µM

Cc1c(S(=O)(=O)c2ccccc2)c(N)n(CCN(C)C)c1C
inactive: SK-MEL-5 > 100 µM | Malme-3M > 100 µM | SN12C > 100 µM | RXF 393 > 100 µM | OVCAR-8 > 100 µM | SW-620 > 100 µM | OVCAR-5 > 100 µM | KM12 > 100 µM | HCT-116 > 100 µM | EKVX > 100 µM | SF-268 > 100 µM | TK-10 > 100 µM | UACC-257 > 100 µM | A549 > 100 µM | SNB-19 > 100 µM | IGROV-1 > 100 µM | U-251 > 100 µM | NCI/ADR-RES > 100 µM | NCI-H460 > 100 µM

C[C@]12CC[C@H](O)CC1=CC[C@@H]1[C@@H]2CC[C@]2(C)C(=O)CC[C@@H]12 [PRASTERONE]
inactive: SK-MEL-5 > 100 µM | Malme-3M > 100 µM | SN12C > 100 µM | RXF 393 > 100 µM | OVCAR-8 > 100 µM | SW-620 > 100 µM | OVCAR-5 > 100 µM | KM12 > 100 µM | HCT-116 > 100 µM | EKVX 75.2 µM | SF-268 > 100 µM | TK-10 > 100 µM | UACC-257 > 100 µM | A549 > 100 µM | SNB-19 > 100 µM | U-251 > 100 µM | NCI/ADR-RES > 100 µM

O=S(=O)(O)c1ccc2cc(/N=N\c3cc(S(=O)(=O)O)c4cccnc4c3O)ccc2c1
inactive: HOP-62 > 100 µM | SK-MEL-5 > 100 µM | Malme-3M > 100 µM | RXF 393 > 100 µM | OVCAR-8 > 100 µM | SW-620 > 100 µM | OVCAR-5 > 100 µM | KM12 > 100 µM | HCT-116 > 100 µM | EKVX > 100 µM | SF-268 > 100 µM | TK-10 > 100 µM | UACC-257 > 100 µM | A549 > 100 µM | SNB-19 > 100 µM | IGROV-1 > 100 µM | U-251 > 100 µM | NCI/ADR-RES > 100 µM | NCI-H460 > 100 µM

COc1cc(C(=O)C2CC3(CCC2(O)c2cc(OC)c(OC)c(OC)c2)CC(=O)Nc2ccccc2C3=O)cc(OC)c1OC (stereo not given)
inactive: HOP-62 > 100 µM | SK-MEL-5 21.3 µM | Malme-3M > 100 µM | SN12C > 100 µM | RXF 393 99.5 µM | OVCAR-8 > 100 µM | SW-620 > 100 µM | OVCAR-5 > 100 µM | HCT-116 67.1 µM | EKVX > 100 µM | SF-268 > 100 µM | TK-10 > 100 µM | UACC-257 > 100 µM | A549 > 100 µM | SNB-19 > 100 µM | IGROV-1 > 100 µM | U-251 > 100 µM | NCI/ADR-RES > 100 µM | NCI-H460 21.5 µM

CC(NNC(=O)c1cc[n+]([BH2-]C#N)cc1)c1ccc(Cl)cc1Cl (stereo not given)
inactive: SK-MEL-5 23 µM | Malme-3M 43.9 µM | SN12C > 100 µM | RXF 393 43.3 µM | OVCAR-8 31.5 µM | SW-620 42.8 µM | OVCAR-5 42.2 µM | KM12 34.8 µM | HCT-116 22.5 µM | EKVX 24.5 µM | SF-268 41.2 µM | TK-10 48.6 µM | UACC-257 42.1 µM | A549 37.2 µM | SNB-19 41.4 µM | IGROV-1 51.8 µM | U-251 48.2 µM | NCI/ADR-RES 31.6 µM | NCI-H460 44.1 µM
